# Patent US8017649B2, “Flavonoid compounds and uses thereof” (Howard Florey Institute of Experimental Physiology and …, priority 2005, dated 2011)
# “Also recorded” adds a separate entry of the source.
# B1: BuCHE: butyryl cholinesterase, esterase used to cleave the adipate (protein, UniProt P06276 29-602, looked up)
# Cholinesterase: EDDIIIATKNGKVRGMNLTVFGGTVTAFLGIPYAQPPLGRLRFKKPQSLTKWSDIWNATKYANSCCQNIDQSFPGFHGSEMWNPNTDLSEDCLYLNVWIPAPKPKNATVLIWIYGGGFQTGTSSLHVYDGKFLARVERVIVVSMNYRVGALGFLALPGNPEAPGNMGLFDQQLALQWVQKNIAAFGGNPKSVTLFGESAGAASVSLHLLSPGSHSLFTRAILQSGSFNAPWAVTSLYEARNRTLNLAKLTGCSRENETEIIKCLRNKDPQEILLNEAFVVPYGTPLSVNFGPTVDGDFLTDMPDILLELGQFKKTQILVGVNKDEGTAFLVYGAPGFSKDNNSIITRKEFQEGLKIFFPGVSEFGKESILFHYTDWVDDQRPENYREALGDVVGDYNFICPALEFTKKFSEWGNNAFFYYFEHRSSKLPWPEWMGVMHGYEIEFVFGLPLERRDNYTKAEEILSRSIVKRWANFAKYGNPNETQNNSTSWPVFKSTEQKYLTLNTESTRIMTKLRAQQCRFWTSFFPKVLEMTGNIDEAEWEWKAGFHRWNNYMMDWKNQFNDYTSKKESCVGL
# Legend:
# [1] = system: superoxide anions generated in rat aorta; test: Superoxide anion production in rat isolated aortic segments (lucigenin chemiluminescence, NADPH); assay type: cell-based; conditions: for superoxide levels: highest concentration tested (0.1 mM)
# Description: Superoxide anion production in rat isolated aortic segments was determined using lucigenin chemiluminescence. Aortic rings were prepared as described above and then placed in ice-cold Krebs-(N-[2-Hydroxyethyl]piperazine-N′-[2-ethanesulfonic acid] (HEPES buffer) (composition (mM); NaCl 99.0, KCl 4.7, KH2PO4 1.0, MgSO4·7H2O 1.2, D-glucose 11.0, NaHCO3 25.0, CaCl2·2H2O 2.5, Na-HEPES 20.0). Aortic rings were pre-incubated for 45 minutes at 37° C. with a pH 7.4, in Krebs-HEPES buffer containing diethylthiocarbamic acid (DETCA, 10^−3 M) to inactivate superoxide dismutase and β-nicotinamide adenine dinucleotide phosphate (NADPH, 10^−4 M) as a substrate for NADPH oxidase and either 3′,4′-dihydroxyflavonol (10^−4 M) as a positive control, vehicle, 3-hydroxyflavone-3-hemiadipate, 3′,4′-dihydroxy-3-hemiadipate, 3-hydroxyflavone-3-phosphate (10^−8-10^−4 M). Background photon emission was measured for 12 cycles in a 96-well Optiplate containing 0.3 ml per well of Krebs-HEPES buffer together with lucigenin (5×10^−5 M) and vehicle or flavonoid (10^−8-10^−4 M). Each cycle was counted every one minute. After background reading was completed the incubated aortic rings were transferred to the appropriate wells and photon emission was recounted as described above. The tissue was then placed in a 65° C. oven for 48 hours to allow superoxide production to be normalised to dry tissue weight.
# The effects of vehicle, 3′,4′-dihydroxyflavone-3-hemiadipate (21) (DiOHF3HA, 10^−8 M-10^−4 M) and DiOHF (10^−4 M) in the presence and absence of Butyryl cholinesterase (BuCHE), 100, 300 and 1000 U/L) on the level of superoxide anions generated in rat isolated aortic segments in the presence of NADPH was expressed as a percentage of control. The method used was as described above except for the addition of the butyryl cholinesterase.
# The effect of vehicle, 3-hydroxyflavone-3-phosphate (10^−8 to 10^−4 M) in the presence or absence of phosphatase (1000 U/L) on the level of superoxide anions generated in rat aorta in the presence of NADPH expressed as a percentage of control was determined as described above for the 3′,4′-dihydroxyflavone-3-hemiadipate.
# [2] = system: rat aorta precontracted with PE; test: Direct relaxation of PE/U46619-precontracted rat aortic rings; assay type: cell-based; conditions: substance alone
# Description: Following testing of endothelial integrity, rings were repeatedly washed and re-equilibrated for 30 minutes before the addition of PE (10^−8−2×10^−7 M) and 9,11-dideoxy-9α, 11α-epoxymethano-prostaglandin F2α (U46619, 10^−9-10^−8 M) to produce an active force in the range of 40-60% of KPSS-induced contraction. The level of precontraction was matched between the various groups by adjusting the concentrations of PE and U46619. Cumulative concentration-response curves in the range 10^−8-10^−4 M were conducted for 3′,4′-dihydroxyflavonol, 3-hydroxyflavone-3-hemiadipate, 3′,4′-dihydroxy-3-hemiadipate, 3-hydroxyflavone-3-phosphate.
# Experiments were conducted in the presence of an esterase, butyryl cholinesterase (BuCHE, 1000 U/L) for the hemiadipate derivates and a phosphatase 1000 U/L) in the case of the phosphate derivatives.
# Following testing of endothelial integrity, rings were repeatedly washed and re-equilibrated for 30 minutes before the addition of PE (10^−8−2×10^−7 M) and 9,11-dideoxy-9α, 11α-epoxymethano-prostaglandin F2α (U46619, 10^−9-10^−7 M) to produce an active force in the range of 40-60% of KPSS-induced contraction. Cumulative concentration-response curves in the range 10^−7-10^−4 M were conducted for vehicle, 3′-hydroxyflavonol, F3HA, DiOHF3HA, F3P. Experiments were conducted in the presence and absence of 1000 U/L BuCHE to cleave the adipate in F3HA and DiOHF3HA. In experiments using F3P 1000 U/L phosphatase was used in some experiments to cleave the phosphate.
# [3] = system: endothelium intact aortic rings; test: Ca2+-induced contraction of rat aortic rings in Ca2+-free high-K+ solution; assay type: cell-based
# Description: To determine the effect of flavonoids on responses to the influx of extracellular Ca^2+, contractile responses to exogenous application of Ca^2+ were examined in the presence of flavonoids in Ca^2+-free high-K^+ solution (60 mM, KPSS). Aortic rings were initially equilibrated at a resting tension of 1 g in normal Ca^2+-free PSS for 45 minutes. The bath medium was then replaced with Ca^2+-free KPSS for 45 minutes to determine a reference contraction to Ca^2+ (3×10^−3 M). Following a 30 minute re-equilibration period with Ca^2+-free PSS, the cumulative contractile responses to Ca^2+ (10^−5−3×10^−3 M) were determined in KPSS in the presence of a range of concentrations (10^−8-10^−4 M) of vehicle, 3′,4′-dihydroxyflavonol, 3-hydroxyflavone-3-hemiadipate, 3′,4′-dihydroxy-3-hemiadipate, 3-hydroxyflavone-3-phosphate. A 20 minute incubation period was allowed for the flavonoids before examining the responses to Ca^2+.
# To determine the effect of flavonoids on responses to the influx of extracellular Ca^2+, contractile responses to exogenous application of Ca^2+ were examined in the presence of flavonoids in Ca^2+-free high-K^+ solution (60 mM, K+-PSS). Aortic rings were initially equilibrated at a resting tension of 1 g in Ca^2+-free PSS for 45 minutes. The bath medium was then replaced with Ca^2+-free K+-PSS for 45 minutes to determine a reference contraction to added Ca^2+ (3 mM). Following a 30 minute re-equilibration period with Ca^2+-free PSS, the cumulative contractile responses to Ca^2+ (10^−5−3×10^−3 M) were determined in K^+ PSS in the presence of vehicle (0.1% DMSO), or a range of concentrations (10^−7-10^−4 M) of 3′-hydroxyflavonol, F3HA, DiOHF3HA or F3P. A 20 minute incubation period was allowed for the flavonoids before examining the responses to Ca^2+. Experiments were conducted in the presence and absence of BuCHE (1000 U/L) to cleave the adipate in F3HA and DiOHF3HA. In experiments using F3P, phosphatase (1000 U/L) was used in some experiments to cleave the phosphate.
# anaesthetised rats = test: Arterial pressure and heart rate in anaesthetised rats after intravenous injection; assay type: in vivo, rat; conditions: intravenous, anaesthetised rats
# Description: A unit dosage of an aqueous solution of 3-hydroxyflavone-3-hemiadipate (15) was administered to a group of male anesthetized Sprague Dawley rats intravenously and the blood pressure monitored over a period of time.
# Male Sprague-Dawley rats (250-350 g) were anaesthetised with pentobarbitone sodium (60 mg kg^−1, ip). The trachea was isolated and cannulated with polyethylene tracheal tube (I.D. 2.0 mm), and the rat was allowed to breathe spontaneously.
# The right carotid artery was cannulated and connected with a heparinised saline filled cannula (O.D. 0.75, I.D, 0.58 mm) and connected to a pressure transducer. Mean and phasic arterial pressure were continuously measured and recorded on a polygraph. The heart rate, was derived from the phasic arterial pressure using a tachometer.
# DiOHF3HA ([…]) was injected intravenously, allowing at least 30 min between injections, and the peak changes in mean arterial pressure and heart rate measured. […] In a separate group of experiments ACh (0.3 mg/kg iv) and phenylephrine (PE, […]) were injected before and 30 minutes after DiOHF3HA (3 mg/kg iv), a time when arterial pressure and heart rate had returned to control levels. […]
# [4] = system: endothelium intact aortic rings; test: Effect on ACh relaxation of precontracted rat aortic rings; assay type: cell-based; conditions: substance alone
# Description: (§1) After wash out and re-equilibration for 30 min, the aortic rings were then submaximally precontracted with PE and U46619, which were used to produce an active tension of 45-60% of the KPSS-induced maximum contraction. When investigating the effects of the flavonoids, flavonol, flavone-3-hemiadipate (F3HA), 3′, 4′-dihydroxyflavone, 3′,4′-dihydroxyflavonol, 3′,4′-dihydroxyflavone-3-hemiadipate (DiOHF3HA), and flavone-3-phosphate (F3P) on vasorelaxant responses, rings were incubated with one of the compounds for 20 mins before they were precontracted submaximally, followed by a cumulative-concentration response curve to ACh (100 nM-10 μM) or SNP ([…]). In experiments using F3P 1000U/L phosphatase was used in some experiments to cleave the phosphate. Some experiments were conducted in the presence and absence of butyryl cholinesterase (BuCHE, 1000 U/L) to cleave the adipate in DiOHF3HA and F3HA.
# aortic rings = test: Effect on SNP relaxation of precontracted rat aortic rings; assay type: cell-based; conditions: substance alone
# Description: as §1
# [5] = substance alone, no added esterase/phosphatase, up to 10^−4 M, NADPH
molecule,measurement,setting,value
"O=c1cc(-c2ccc(O)c(O)c2)oc2ccccc12 [DiOHFne, 3′,4′-dihydroxyflavone, reference compound]",superoxide levels,[1],36±3 % of control
same,effect on superoxide generation,[1]; [5],concentration dependent decreases in superoxide levels
same,direct relaxing effect on precontracted vessels,[2],concentration-dependent relaxation of rat aorta which was weaker than the effect of DiOHF
"O=C(O)CCCCC(=O)Oc1c(-c2ccccc2)oc2ccccc2c1=O [F3HA, Flavone-3-hemiadipate]",effect on Ca^2+-induced contraction,"[3]; alone, highest concentration 10^−4 M",only inhibited contractile responses to increasing concentrations of extracellular calcium at the highest concentration tested
same,effect on Ca^2+-induced contraction,"[3]; alone, highest concentration 10^−4 M, listed as flavone-3-hemiadipate",some inhibitory effect
same,effect on Ca^2+-induced contraction,"[3]; alone, lower concentrations 10^−8 to 10^−5 M",did not effect Ca^2+ contraction
same,effect on Ca^2+-induced contraction,[3]; in the presence of BuCHE or phosphatase (1000 U/L),inhibit calcium-induced contraction
same,change in mean arterial pressure (MAP),anaesthetised rats,significant reduction in the blood pressure
same,effect on superoxide generation,"[1]; in the presence of cleaving enzyme (BuCHE for hemiadipates, phosphatase for phosphate, 1000 U/L)",concentration dependent increase in the inhibitory effect
same,effect on superoxide generation,"[1]; in the presence of cleaving enzyme (BuCHE for hemiadipates, phosphatase for phosphate, 1000 U/L), listed as flavone-3-hemiadipate",concentration-dependent inhibitory effect
same,effect on superoxide generation,[1]; [5],no inhibitory effect on superoxide generation; also recorded: no antioxidant or vascular activity
same,effect on superoxide generation,"[1]; substance alone, no added esterase/phosphatase, up to 10^−4 M, NADPH, listed as Flavone-3-hemiadipate",no effect on the superoxide production
same,effect on superoxide generation,"[1]; substance alone, no added esterase/phosphatase, up to 10^−4 M, NADPH, listed as flavone-3-hemiadipate",no effect on the superoxide production at any concentration
"O=c1c(O)c(-c2ccccc2)oc2ccccc12 [Flavonol, reference compound]",effect on Ca^2+-induced contraction,"[3]; alone, over the concentration range tested",concentration dependent decreases in calcium-induced contraction
same,effect on relaxant response to ACh,[4],did not affect
same,superoxide levels,[1],36±3 % of control
same,effect on superoxide generation,[1]; [5],concentration dependent decreases in superoxide levels
same,effect on relaxant response to SNP,aortic rings,did not affect
B1,direct relaxing effect on precontracted vessels,[2],no effect on PE precontracted vessels
